# Assay results published in ChEMBL document CHEMBL5331106, “Investigation into the Mechanism of Action of the Tuberculosis Drug Candidate SQ109 and Its Metabolites and Analogues in Mycobacteria” (J Med Chem, 2023).
# Key:
# [1] = test system: Mycolicibacterium smegmatis; experiment: Antimycobacterial activity against Mycobacterium smegmatis assessed as inhibition of mycobacterial growth incubated for 48 hrs; assay type: functional, organism-based
# [2] = test system: Mycobacterium tuberculosis; experiment: Antimycobacterial activity against Mycobacterium tuberculosis HN878 assessed as inhibition of mycobacterial growth incubated for 5 days; assay type: functional, organism-based; conditions: HN878, 120 h
# [3] = test system: Mycolicibacterium smegmatis; experiment: Antimycobacterial activity against Mycobacterium smegmatis assessed as inhibition of mycobacterial growth incubated for 48 hrs in presence of 50 uM undecaprenyl phosphate; assay type: functional, organism-based
# [4] = test system: Mycolicibacterium smegmatis; experiment: Rescue fold, ratio of IC50 for antimycobacterial activity against Mycobacterium smegmatis in presence of 50 uM undecaprenyl phosphate to IC50 for antimycobacterial activity against Mycobacterium smegmatis; assay type: functional
# [5] = test system: Mycobacterium tuberculosis; experiment: Antimycobacterial activity against Mycobacterium tuberculosis HN878 assessed as inhibition of mycobacterial growth incubated for 5 days in presence of 50 uM undecaprenyl phosphate; assay type: functional, organism-based; conditions: HN878, 120 h
# Cell membrane = experiment: Uncoupling activity in Escherichia coli inverted membrane vesicles assessed as collapse of pH gradient by measuring increase in ACMA fluorescence intensity by fluorometric analysis; assay type: subcellular
# [6] = test system: Mycolicibacterium smegmatis; experiment: Rescue fold, ratio of IC50 for antimycobacterial activity against Mycobacterium smegmatis in presence of 100 uM menaquinone-7 to IC50 for antimycobacterial activity against Mycobacterium smegmatis; assay type: functional
# [7] = test system: Mycolicibacterium smegmatis; experiment: Rescue fold, ratio of IC50 for antimycobacterial activity against Mycobacterium smegmatis in presence of 100 uM menaquinone-4 to IC50 for antimycobacterial activity against Mycobacterium smegmatis; assay type: functional
# [8] = biological target: T1, Undecaprenyl-diphosphatase (Escherichia coli (strain K12), UniProt P60932); experiment: Inhibition of UppP in Escherichia coli using FPP as substrate pretreated for 20 mins followed by FPP addition and measured after 60 mins by malachite green based assay
# T1 sequence (P60932 whole entry): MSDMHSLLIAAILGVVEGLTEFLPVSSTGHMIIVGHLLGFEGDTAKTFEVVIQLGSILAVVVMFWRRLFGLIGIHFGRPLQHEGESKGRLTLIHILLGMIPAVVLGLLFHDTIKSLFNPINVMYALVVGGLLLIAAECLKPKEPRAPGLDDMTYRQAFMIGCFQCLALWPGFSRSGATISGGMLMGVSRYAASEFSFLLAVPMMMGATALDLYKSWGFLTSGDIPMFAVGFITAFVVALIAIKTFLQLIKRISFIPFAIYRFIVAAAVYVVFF
# [9] = test system: Mycolicibacterium smegmatis; experiment: Antimycobacterial activity against Mycobacterium smegmatis assessed as inhibition of mycobacterial growth incubated for 48 hrs in presence of 50 uM menaquinone-4; assay type: functional, organism-based
# [10] = test system: Mycolicibacterium smegmatis; experiment: Antimycobacterial activity against Mycobacterium smegmatis assessed as inhibition of mycobacterial growth incubated for 48 hrs in presence of 50 uM menaquinone-4 and 50 uM undecaprenyl phosphate; assay type: functional, organism-based
# [11] = test system: Mycolicibacterium smegmatis; experiment: Antimycobacterial activity against Mycobacterium smegmatis assessed as inhibition of mycobacterial growth incubated for 48 hrs in presence of 200 uM undecaprenyl phosphate; assay type: functional, organism-based
# [12] = test system: Mycolicibacterium smegmatis; experiment: Antimycobacterial activity against Mycobacterium smegmatis assessed as inhibition of mycobacterial growth incubated for 48 hrs in presence of 100 uM undecaprenyl phosphate; assay type: functional, organism-based
# [13] = test system: Mycolicibacterium smegmatis; experiment: Antimycobacterial activity against Mycobacterium smegmatis assessed as inhibition of mycobacterial growth incubated for 48 hrs in presence of 25 uM undecaprenyl phosphate; assay type: functional, organism-based
# [14] = test system: Mycolicibacterium smegmatis; experiment: Antimycobacterial activity against Mycobacterium smegmatis assessed as inhibition of mycobacterial growth incubated for 48 hrs in presence of 12.5 uM undecaprenyl phosphate; assay type: functional, organism-based
# [15] = test system: Mycolicibacterium smegmatis; experiment: Antimycobacterial activity against Mycobacterium smegmatis assessed as inhibition of mycobacterial growth incubated for 48 hrs in presence of 25 uM menaquinone-4; assay type: functional, organism-based
# [16] = test system: Mycolicibacterium smegmatis; experiment: Antimycobacterial activity against Mycobacterium smegmatis assessed as inhibition of mycobacterial growth incubated for 48 hrs in presence of 200 uM menaquinone-4; assay type: functional, organism-based
# [17] = test system: Mycolicibacterium smegmatis; experiment: Antimycobacterial activity against Mycobacterium smegmatis assessed as inhibition of mycobacterial growth incubated for 48 hrs in presence of 50 uM menaquinone-7; assay type: functional, organism-based
# [18] = test system: Mycolicibacterium smegmatis; experiment: Antimycobacterial activity against Mycobacterium smegmatis assessed as inhibition of mycobacterial growth incubated for 48 hrs in presence of 100 uM menaquinone-7; assay type: functional, organism-based
# [19] = biological target: T2, (2Z,6E)-farnesyl diphosphate synthase (Mycobacterium tuberculosis, UniProt P9WFF5); experiment: Inhibition of Mycobacterium tuberculosis cis-farnesyl diphosphate synthase
# T2 sequence (P9WFF5 whole entry): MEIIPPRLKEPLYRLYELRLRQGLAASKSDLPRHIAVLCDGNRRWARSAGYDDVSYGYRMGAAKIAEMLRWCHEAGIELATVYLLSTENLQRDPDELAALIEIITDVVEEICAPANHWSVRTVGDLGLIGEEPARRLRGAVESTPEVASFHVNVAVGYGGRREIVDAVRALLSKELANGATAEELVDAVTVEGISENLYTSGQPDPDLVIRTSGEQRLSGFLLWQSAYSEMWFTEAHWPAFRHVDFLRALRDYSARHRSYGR
# [20] = biological target: T3, Decaprenyl diphosphate synthase (Mycobacterium tuberculosis, UniProt P9WFF7); experiment: Inhibition of Mycobacterium tuberculosis cis-decaprenyl diphosphate synthase
# T3 sequence (P9WFF7 whole entry): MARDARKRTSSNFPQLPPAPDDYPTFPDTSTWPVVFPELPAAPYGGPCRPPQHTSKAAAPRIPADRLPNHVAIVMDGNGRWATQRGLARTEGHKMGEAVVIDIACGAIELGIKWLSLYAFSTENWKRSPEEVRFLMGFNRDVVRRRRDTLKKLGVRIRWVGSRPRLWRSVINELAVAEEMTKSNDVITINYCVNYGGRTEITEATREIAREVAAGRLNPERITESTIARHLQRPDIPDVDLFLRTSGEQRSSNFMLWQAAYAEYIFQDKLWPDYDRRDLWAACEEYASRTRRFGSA
# [21] = Inhibition of Plasmodium vivax geranylgeranyl diphosphate synthase
# [22] = Inhibition of Staphylococcus aureus undecaprenyl diphosphate synthase
# [23] = Inhibition of Escherichia coli undecaprenyl diphosphate synthase
# [24] = Inhibition of Staphylococcus aureus farnesyl diphosphate synthase
# [25] = Inhibition of Staphylococcus aureus dehydrosqualene synthase
# [26] = test system: Mycolicibacterium smegmatis; experiment: Rescue fold, ratio of IC50 for antimycobacterial activity against Mycobacterium smegmatis in presence of 200 uM menaquinone-4 to IC50 for antimycobacterial activity against Mycobacterium smegmatis; assay type: functional
# [27] = biological target: T4, Trehalose monomycolate exporter MmpL3 (Mycolicibacterium smegmatis, UniProt A0QP27); experiment: Binding affinity to C-terminal 10XHis-tagged Mycobacterium smegmatis mc2 155 MmpL3 expressed in Mycobacterium smegmatis mc2 155 cells by microscale thermophoresis analysis
# T4 sequence (A0QP27 whole entry): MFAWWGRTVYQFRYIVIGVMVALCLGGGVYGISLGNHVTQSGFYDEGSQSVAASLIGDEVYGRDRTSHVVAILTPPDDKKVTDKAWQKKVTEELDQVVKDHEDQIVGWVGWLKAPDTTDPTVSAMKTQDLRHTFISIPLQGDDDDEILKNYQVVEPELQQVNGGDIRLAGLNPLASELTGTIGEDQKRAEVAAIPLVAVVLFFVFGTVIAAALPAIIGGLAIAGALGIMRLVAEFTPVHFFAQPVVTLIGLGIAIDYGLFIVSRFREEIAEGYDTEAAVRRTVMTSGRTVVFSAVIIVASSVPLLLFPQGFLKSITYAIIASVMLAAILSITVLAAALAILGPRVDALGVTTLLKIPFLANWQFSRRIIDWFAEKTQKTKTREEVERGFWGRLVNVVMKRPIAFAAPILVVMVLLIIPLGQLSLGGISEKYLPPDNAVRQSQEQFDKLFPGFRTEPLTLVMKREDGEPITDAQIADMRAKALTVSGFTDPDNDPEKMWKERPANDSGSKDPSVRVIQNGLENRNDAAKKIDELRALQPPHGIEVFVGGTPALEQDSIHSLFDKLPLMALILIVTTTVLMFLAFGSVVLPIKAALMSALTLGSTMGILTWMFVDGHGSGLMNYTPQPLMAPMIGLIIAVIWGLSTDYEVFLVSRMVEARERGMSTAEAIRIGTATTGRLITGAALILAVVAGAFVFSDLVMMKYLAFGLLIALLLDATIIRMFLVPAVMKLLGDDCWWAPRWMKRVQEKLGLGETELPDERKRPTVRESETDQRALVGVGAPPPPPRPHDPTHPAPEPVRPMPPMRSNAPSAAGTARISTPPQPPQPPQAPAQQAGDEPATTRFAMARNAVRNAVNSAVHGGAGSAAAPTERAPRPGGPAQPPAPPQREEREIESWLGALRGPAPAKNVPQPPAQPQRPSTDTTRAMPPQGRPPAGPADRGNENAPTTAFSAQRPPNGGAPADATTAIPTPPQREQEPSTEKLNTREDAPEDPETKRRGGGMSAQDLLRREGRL
# [28] = biological target: T4, Trehalose monomycolate exporter MmpL3; experiment: Binding affinity to Mycobacterium smegmatis MmpL3 by surface plasmon resonance assay
# [29] = test system: Mycolicibacterium smegmatis; experiment: Antimycobacterial activity against Mycobacterium smegmatis assessed as inhibition of mycobacterial growth incubated for 48 hrs in presence of 50 uM Upp; assay type: functional, organism-based
# [30] = Drug metabolism in Mycobacterium tuberculosis HN878 assessed as N1-(adamantan-1-yl)ethane-1,2-diamine metabolite formation at 10 uM incubated for 24 hrs by LC-MS analysis; assay type: ADME
smiles,measurement,setting,value
CC(C)=CCC/C(C)=C/CCNCCNC1C2CC3CC(C2)CC1C3 (centres undefined),IC50,[1],2.7 µM
same,IC50,[2],0.82 µM
same,IC50,[3],48 µM
same,Ratio IC50,[4],18
same,IC50,[5],8 µM
same,IC50,Cell membrane,1.9 µM
same,Ratio IC50,[6],2
same,Ratio IC50,[7],2
same,IC50,[8],16 µM
CC(C)=CCC/C(C)=C/CNCCNC1C2CC3CC(C2)CC1C3 (centres undefined) [SQ109],IC50,[1],1.5 µM
same,IC50,[2],0.41 µM
same,IC50,[3],16 µM
same,Ratio IC50,[4],6.4
same,IC50,[5],6.1 µM
same,IC50,[9],2.9 µM
same,IC50,[10],16 µM
same,IC50,[11],14 µM
same,IC50,[12],14 µM
same,IC50,[13],8.9 µM
same,IC50,[14],3.7 µM
same,IC50,[15],2.1 µM
same,IC50,[16],4.8 µM
same,IC50,[17],4.2 µM
same,IC50,[18],6.5 µM
same,IC50,Cell membrane,2.3 µM
same,IC50,[19],≥ 50 µM
same,IC50,[20],≥ 50 µM
same,IC50,[21],≥ 50 µM
same,IC50,[22],≥ 50 µM
same,IC50,[23],≥ 50 µM
same,IC50,[24],≥ 50 µM
same,IC50,[25],≥ 50 µM
same,Ratio IC50,[26],2
same,Kd,[27],1.6 µM
same,Kd,[28],400 µM
same,Ratio IC50,[6],3
same,IC50,[8],32 µM
same,IC50,[29],1.4 µM
same,Drug metabolism,[30],Metabolite_Notdetected
